Measurements as given in patent publication US11814391B2, “Macrocyclic compounds for the treatment of medical disorders” (Achillion Pharmaceuticals, Inc., priority 2018, dated 2023).
Where two headings read alike, the source gives them in different places.

Conditions: rcm bond, Grubbs II

C=C(C)c1cc2c3c(c1)c(C(C)=O)nn3CC(=O)N1[C@H](C(=O)Nc3nc(C(F)(F)F)ccc3C)C[C@@]3(CNC(=O)CCCC=CC2)C[C@@H]13
ring closure, isolated yield (from C=CCCCC(=O)NC[C@@]12C[C@@H](C(=O)Nc3nc(C(F)(F)F)ccc3C)N(C(=O)Cn3nc(C(C)=O)c4cc(C(=C)C)cc(CC=C)c43)[C@@H]1C2, 17-membered ring, toluene, 1.43 mM, 80.0 °C, 16.0 h): 21.7%

C=Cc1cc(-c2cnc(C)nc2)cc2c(C(C)=O)nn(CC(=O)N3[C@H](C(=O)Nc4nc(C(F)(F)F)ccc4C)C[C@@]4(CNC(=O)C[C@@H](C)CCC=C(C)C)C[C@@H]34)c12
ring closure, isolated yield (the molecule shown is the open-chain precursor, 17-membered ring, DCE, 1.25 mM, 50.0 °C): 55.6%

CC(=O)c1nn2c3c(cc(-c4cnc(C)cn4)cc13)CC=CCC[C@@H](C)C(=O)NC[C@@]13C[C@@H](C(=O)Nc4nc(C(F)(F)F)ccc4C)N(C(=O)C2)[C@@H]1C3
ring closure, isolated yield (from C=CCC[C@@H](C)C(=O)NC[C@@]12C[C@@H](C(=O)Nc3nc(C(F)(F)F)ccc3C)N(C(=O)Cn3nc(C(C)=O)c4cc(-c5cnc(C)cn5)cc(CC=C)c43)[C@@H]1C2, 17-membered ring, toluene, 1.32 mM, 80.0 °C): 62.1%

CC(=O)c1nn2c3c(cc(-c4cnc(C)nc4)cc13)CC=CCC(C)(C)CC(=O)NC[C@@]13C[C@@H](C(=O)Nc4nc(C(F)(F)F)ccc4C)N(C(=O)C2)[C@@H]1C3
ring closure, isolated yield (from C=CCc1cc(-c2cnc(C)nc2)cc2c(C(C)=O)nn(CC(=O)N3[C@H](C(=O)Nc4nc(C(F)(F)F)ccc4C)C[C@@]4(CNC(=O)CC(C)(C)CC=C)C[C@@H]34)c12, 17-membered ring, toluene, 1.2 mM, 80.0 °C): 67.4%

CC(=O)c1nn2c3c(cc(-c4cnc(C)nc4)cc13)CC=CCCCC(=O)N(C)C[C@@]13C[C@@H](C(=O)Nc4cc(F)cc(Br)n4)N(C(=O)C2)[C@@H]1C3
ring closure, isolated yield (from C=CCCCC(=O)N(C)C[C@@]12C[C@@H](C(=O)Nc3cc(F)cc(Br)n3)N(C(=O)Cn3nc(C(C)=O)c4cc(-c5cnc(C)nc5)cc(CC=C)c43)[C@@H]1C2, 17-membered ring, toluene, 1.29 mM, 80.0 °C, 16.0 h): 94.5%

CC(=O)c1nn2c3c(cc(-c4cnc(C)nc4)cc13)CC=CCCCCN(C(=O)OC(C)(C)C)C[C@@]13C[C@@H](C(=O)Nc4nc(C(F)(F)F)ccc4C)N(C(=O)C2)[C@@H]1C3
ring closure, isolated yield (from C=CCCCCN(C[C@@]12C[C@@H](C(=O)Nc3nc(C(F)(F)F)ccc3C)N(C(=O)Cn3nc(C(C)=O)c4cc(-c5cnc(C)nc5)cc(CC=C)c43)[C@@H]1C2)C(=O)OC(C)(C)C, 17-membered ring, toluene, 1.2 mM, 80.0 °C): 60.4%

CC(=O)c1nn2c3c(cc(-c4cnc(C)nc4)cc13)CC=CCC[C@@H](C)C(=O)NC[C@@]13C[C@@H](C(=O)Nc4cc(F)cc(Br)n4)N(C(=O)C2)[C@@H]1C3
ring closure, isolated yield (from C=CCC[C@@H](C)C(=O)NC[C@@]12C[C@@H](C(=O)Nc3cc(F)cc(Br)n3)N(C(=O)Cn3nc(C(C)=O)c4cc(-c5cnc(C)nc5)cc(CC=C)c43)[C@@H]1C2, 17-membered ring, toluene, 1.63 mM, 80.0 °C, 16.0 h): 72.6%

CC(=O)c1nn2c3c(cc(-c4cnc(C)nc4)cc13)CC=CCC[C@@H](C)C(=O)NC[C@@]13C[C@@H](C(=O)Nc4ccc(F)c(Br)n4)N(C(=O)C2)[C@@H]1C3
ring closure, isolated yield (from C=CCC[C@@H](C)C(=O)NC[C@@]12C[C@@H](C(=O)Nc3ccc(F)c(Br)n3)N(C(=O)Cn3nc(C(C)=O)c4cc(-c5cnc(C)nc5)cc(CC=C)c43)[C@@H]1C2, 17-membered ring, toluene, 1.67 mM, 80.0 °C): 62.8%

CC(=O)c1nn2c3c(cc(-c4cnc(C)nc4)cc13)CCCCCCC=CCCN([C@@H](C)C(=O)Nc1nc(Br)ccc1C)C(=O)C2
ring closure, isolated yield (from C=CCCCCCCc1cc(-c2cnc(C)nc2)cc2c(C(C)=O)nn(CC(=O)N(CCC=C)[C@@H](C)C(=O)Nc3nc(Br)ccc3C)c12, 16-membered ring, toluene, 1.33 mM, 80.0 °C, 16.0 h): 88.9%

CC(=O)c1nn2c3c(cc(-c4cnc(C)nc4)cc13)CCCCCCC=CCc1ccc(Br)nc1NC(=O)[C@H](C)N(C)C(=O)C2
ring closure, isolated yield (from C=CCCCCCCc1cc(-c2cnc(C)nc2)cc2c(C(C)=O)nn(CC(=O)N(C)[C@@H](C)C(=O)Nc3nc(Br)ccc3CC=C)c12, 20-membered ring, toluene, 1.4 mM, 80.0 °C, 16.0 h): 63.8%

CC(=O)c1nn2c3c(cc(-c4cnc5cc(C)nn5c4)cc13)CC=CCC[C@@H](C)C(=O)NC[C@@]13C[C@@H](C(=O)Nc4nc(C(F)(F)F)ccc4C)N(C(=O)C2)[C@@H]1C3
ring closure, isolated yield (from C=CCC[C@@H](C)C(=O)NC[C@@]12C[C@@H](C(=O)Nc3nc(C(F)(F)F)ccc3C)N(C(=O)Cn3nc(C(C)=O)c4cc(-c5cnc6cc(C)nn6c5)cc(CC=C)c43)[C@@H]1C2, 17-membered ring, toluene, 1.64 mM, 80.0 °C): 66.7%

CC(=O)c1nn2c3c(cc(-c4nnc(C)o4)cc13)CC=CCCCC(=O)NC[C@@]13C[C@@H](C(=O)Nc4nc(C(F)(F)F)ccc4C)N(C(=O)C2)[C@@H]1C3
ring closure, isolated yield (from C=CCCCC(=O)NC[C@@]12C[C@@H](C(=O)Nc3nc(C(F)(F)F)ccc3C)N(C(=O)Cn3nc(C(C)=O)c4cc(-c5nnc(C)o5)cc(CC=C)c43)[C@@H]1C2, 17-membered ring, toluene, 1.36 mM, 80.0 °C, 16.0 h): 83.2%

CC(=O)c1nn2c3c(cc(C)cc13)CC=CCCCC(=O)NC[C@@]13C[C@@H](C(=O)Nc4nc(C(F)(F)F)ccc4C)N(C(=O)C2)[C@@H]1C3
ring closure, isolated yield (from C=CCCCC(=O)NC[C@@]12C[C@@H](C(=O)Nc3nc(C(F)(F)F)ccc3C)N(C(=O)Cn3nc(C(C)=O)c4cc(C)cc(CC=C)c43)[C@@H]1C2, 17-membered ring, toluene, 1.77 mM, 80.0 °C, 16.0 h): 86.7% | ring closure, isolated yield (from C=CCCCC(=O)NC[C@@]12C[C@@H](C(=O)Nc3nc(C(F)(F)F)ccc3C)N(C(=O)Cn3nc(C(C)=O)c4cc(C)cc(CC=C)c43)[C@@H]1C2, 17-membered ring, toluene, 1.88 mM, 80.0 °C, 12.0 h): 62.6%

CC(=O)c1nn2c3c(cc(C=C(C)C)cc13)CC=CCCCC(=O)NC[C@@]13C[C@@H](C(=O)Nc4nc(C(F)(F)F)ccc4C)N(C(=O)C2)[C@@H]1C3
ring closure, isolated yield (from C=CCCCC(=O)NC[C@@]12C[C@@H](C(=O)Nc3nc(C(F)(F)F)ccc3C)N(C(=O)Cn3nc(C(C)=O)c4cc(C=C(C)C)cc(CC=C)c43)[C@@H]1C2, 17-membered ring, toluene, 1.67 mM, 80.0 °C, 16.0 h): 69.4%

CC(=O)c1nn2c3c(cc(CCC(C)C)cc13)CC=CCCCC(=O)NC[C@@]13C[C@@H](C(=O)Nc4nc(C(F)(F)F)ccc4C)N(C(=O)C2)[C@@H]1C3
ring closure, isolated yield (from C=CCCCC(=O)NC[C@@]12C[C@@H](C(=O)Nc3nc(C(F)(F)F)ccc3C)N(C(=O)Cn3nc(C(C)=O)c4cc(CCC(C)C)cc(CC=C)c43)[C@@H]1C2, 17-membered ring, toluene, 1.38 mM, 80.0 °C, 16.0 h): 27.7%

CC(=O)c1nn2c3c(cc(N4CCCC4)cc13)CC=CCCCC(=O)NC[C@@]13C[C@@H](C(=O)Nc4nc(C(F)(F)F)ccc4C)N(C(=O)C2)[C@@H]1C3
ring closure, isolated yield (from C=CCCCC(=O)NC[C@@]12C[C@@H](C(=O)Nc3nc(C(F)(F)F)ccc3C)N(C(=O)Cn3nc(C(C)=O)c4cc(N5CCCC5)cc(CC=C)c43)[C@@H]1C2, 17-membered ring, toluene, 2.0 mM, 80.0 °C, 16.0 h): 92.5%

CC(=O)c1nn2c3c(cc(NC(=O)OC(C)(C)C)cc13)CC=CCCCC(=O)NC[C@@]13C[C@@H](C(=O)Nc4nc(C(F)(F)F)ccc4C)N(C(=O)C2)[C@@H]1C3
ring closure, isolated yield (from C=CCCCC(=O)NC[C@@]12C[C@@H](C(=O)Nc3nc(C(F)(F)F)ccc3C)N(C(=O)Cn3nc(C(C)=O)c4cc(NC(=O)OC(C)(C)C)cc(CC=C)c43)[C@@H]1C2, 17-membered ring, toluene, 1.3 mM, 80.0 °C, 16.0 h): 78.9%

CC(=O)c1nn2c3c(cc(OCC(C)C)cc13)CC=CCCCC(=O)NC[C@@]13C[C@@H](C(=O)Nc4nc(C(F)(F)F)ccc4C)N(C(=O)C2)[C@@H]1C3
ring closure, isolated yield (from C=CCCCC(=O)NC[C@@]12C[C@@H](C(=O)Nc3nc(C(F)(F)F)ccc3C)N(C(=O)Cn3nc(C(C)=O)c4cc(OCC(C)C)cc(CC=C)c43)[C@@H]1C2, 17-membered ring, toluene, 1.71 mM, 80.0 °C, 16.0 h): 92%

CC(=O)c1nn2c3c(cc(Oc4ncc(C)cn4)cc13)CC=CCCCC(=O)NC[C@@]13C[C@@H](C(=O)Nc4nc(C(F)(F)F)ccc4C)N(C(=O)C2)[C@@H]1C3
ring closure, isolated yield (from C=CCCCC(=O)NC[C@@]12C[C@@H](C(=O)Nc3nc(C(F)(F)F)ccc3C)N(C(=O)Cn3nc(C(C)=O)c4cc(Oc5ncc(C)cn5)cc(CC=C)c43)[C@@H]1C2, 17-membered ring, toluene, 1.5 mM, 80.0 °C): 61.5%

CN(C(=O)OCc1ccccc1)[C@H]1CC=CCCCCCCc2ccc(Br)nc2NC1=O
ring closure, isolated yield (from C=CCCCCCCc1ccc(Br)nc1NC(=O)[C@H](CC=C)N(C)C(=O)OCc1ccccc1, 14-membered ring, toluene, 1.85 mM, 80.0 °C, 16.0 h): 79.6%

(1,R,3S,5R)-2-{2-[3-Acetyl-5-methoxy-7-(prop-2-en-1-yl)indazol-1-yl]acetyl}-5-(hex-5-enamidonaethyl)-N-[3-methyl-6-(trifluoromethyl)pyridin-2-yl]-2-azabicyclo[3.1.0]hexane-3-carboxamide
ring closure, isolated yield (the molecule shown is the open-chain precursor, 17-membered ring, toluene, 1.43 mM, 80.0 °C): 69.1%

(1R,3S,5R)-2-(2-(3-Acetyl-7-allyl-5-(2-methylpyrimidin-5-yl)-1H-indazol-1-yl)acetyl)-N-(3-methyl-6-(trifluoromethyl)pyridin-2-yl)-5-(((R)-2-methylhex-5-amido)methyl)-2-azabicyclo[3.1.0]hexane-3-carboxamide
ring closure, isolated yield (the molecule shown is the open-chain precursor, 17-membered ring, toluene, 1.72 mM, 80.0 °C): 47.9%
